Peptide text beside a SMILES is read from it.
Key:
red blood cells = type: cell-based, pig
Experimental: A series of parameters such as charge number, hydrophobicity, sequence length, and amphipathicity can affect the hemolytic activity of peptides against red blood cells. The minimal hemolytic concentration (MHC) refers to the minimum concentration that causes hemolysis of 10 % of red blood cells, and is often used to evaluate the hemolytic activity of the peptides. Except for SFK3, the percentage of hemolysis at 128 μM was below 5% for all peptides. Hemolysis of the erythrocytes occurred after incubation with Triton X‐100, with complete fragmentation of the erythrocytes and a bright red color of the reaction system (Figure 2B,C and Table S5).
The hemolytic activity of the peptide was calculated by measuring the level of […] released from mammalian red blood cell lysis induced by the peptide, [44]. Fresh porcine blood was collected from the jugular vein and washed with PBS three times, and red blood cells were collected. A red blood cell suspension of 10% (v/v) concentration was prepared in 10 mM PBS (pH = 7.4). After mixing with different concentrations of peptides in equal volume, they were incubated at 37°C for 2 h. Red blood cells treated with PBS and 0.1% Triton X‐100 were used as negative and positive controls, respectively. The assay was repeated three times. After the sample was centrifuged, the supernatant was transferred to a new 96‐well plate, and the optical density at 570 nm was measured using a microplate reader. Hemolysis was calculated as follows: Hemolytic activity(%)=ODtest sample−ODnegative control/ODpositive control−ODnegative control×100%

P. aeruginosa 15442 = type: cell-based, Pseudomonas aeruginosa
Experimental: (§1) MICs were determined to evaluate the antimicrobial activities of the peptides. The bacteria were inoculated into Mueller‐Hinton broth (MHB) medium in advance and placed in a shaker at 37°C until the logarithmic growth phase. The optical density value at OD600 of the bacterial suspension was adjusted to 0.4, and then diluted 1000 times with sterile MHB medium. Subsequently, the peptides with concentrations of 0.25–128 μM were prepared using bovine serum albumin (BSA) solution (0.2% BSA and 0.01% acetic acid) as the solvent on a 96‐well plate. Different concentrations of peptides and bacterial liquids were mixed in equal volumes. MHB medium containing bacteria was used as a positive control. MHB medium without bacteria was used as a negative control. Then, the mixture of peptides and bacteria was cultured in an incubator at 37°C for 18–24 h. The optical density of each well was measured at 492 nm using a microplate reader. The lowest drug concentration corresponding to a culture mixture with an optical density of less than 0.1 is the MIC of the peptide. The assay was repeated three times in duplicate.

P. aeruginosa 27853 = type: cell-based, Pseudomonas aeruginosa
Experimental: as §1

BALB/c mice [1] = assay: Biosafety evaluation, tail vein injection; type: in vivo, mouse; conditions: tail vein 5 mg/kg once daily, 7 days, n = 6
Experimental: Twelve male BALB/c mice (weighing approximately 20 g) were randomly divided into two groups (control and peptide‐treated groups). Mice in the peptide‐treated group were injected intravenously into the tail vein with 5 mg/kg peptide solution once daily. In the control group, mice were injected once daily with saline via the tail vein. The experiment was continued for 7 days, and changes in body weight were recorded. Mice were anesthetized with ether and euthanized 12 h after the seventh tail vein injection. Blood was collected from the orbital vein and centrifuged, and the serum was analyzed biochemically. The livers and kidneys of mice were collected and weighed. The organs were then fixed in a 4% paraformaldehyde solution and analyzed by H&E staining.

S. aureus ATCC 6538 = type: cell-based, Staphylococcus aureus
Experimental: as §1
The assay was performed to analyze the salt ion stability of SFK2 by measuring changes in MIC values in different physiological salt concentrations, [46].

BALB/c mice [2] = assay: Biosafety evaluation, intraperitoneal injection; type: in vivo, mouse; conditions: i.p. 15 and 30 mg/kg once daily, 7 days, n = 6, except 15 mg/kg group for urea
Experimental: Eighteen male BALB/c mice (weighing approximately 30 g) were randomly divided into three groups (control, low‐dose, and high‐dose groups). Mice in the low‐ and high‐dose groups were intraperitoneally injected with 15 and 30 mg/kg polypeptide solutions, respectively, once daily. Mice in the control group were injected intraperitoneally with 150 µl of saline once daily. The experiment lasted for 7 days, and the changes in the body weight of the mice were recorded. After the seventh intraperitoneal injection for another 12 h, the mice were anesthetized with ether and euthanized. Blood was collected from the orbital vein, and serum was analyzed by biochemical analysis after centrifugation. The livers and kidneys of mice were collected and weighed. Afterward, the organs were fixed in a 4% paraformaldehyde solution and stained with H&E for analysis.

E. coli K88 = type: cell-based, Escherichia coli; conditions: microbroth dilution, MHB, 37°C, 18–24 h, OD492 < 0.1; repeated three times in duplicate
Experimental: as §1

E. coli K99 = type: cell-based, Escherichia coli; conditions: microbroth dilution, MHB, 37°C, 18–24 h, OD492 < 0.1; repeated three times in duplicate
Experimental: as §1

E. coli 25922 = type: cell-based, Escherichia coli
Experimental: as §1

S. epidermidis 12228 = type: cell-based, Staphylococcus epidermidis
Experimental: as §1

S. aureus 6538 = type: cell-based, Staphylococcus aureus
Experimental: as §1

S. aureus 1882 = type: cell-based, Staphylococcus aureus
Experimental: as §1

CC[C@H](C)[C@H](NC(=O)[C@H](CCCNC(=N)N)NC(=O)[C@H](CO)NC(=O)[C@H](CC(C)C)NC(=O)[C@H](Cc1ccccc1)NC(=O)[C@H](Cc1ccccc1)NC(=O)[C@H](Cc1ccccc1)NC(=O)CNC(=O)CNC(=O)CNC(=O)[C@H](CO)NC(=O)[C@H](C)NC(=O)[C@H](CCCNC(=N)N)NC(=O)[C@@H](NC(=O)[C@H](Cc1c[nH]c2ccccc12)NC(=O)[C@H](Cc1ccc(O)cc1)NC(=O)[C@@H](N)CO)C(C)C)C(=O)N[C@@H](Cc1ccccc1)C(=O)N[C@@H](CCCCN)C(=O)N[C@@H](CCCCN)C(N)=O [SFK2] (H-SYWVRASGGGFFFLSRIFKK-NH2)
negligible toxic side effects: Toxic side effects after tail vein injection (BALB/c mice [1])
2 µM: MIC of SFK2 against S. aureus ATCC 6538, Control (S. aureus ATCC 6538) | MIC of SFK2 against S. aureus ATCC 6538, ZnCl2 (S. aureus ATCC 6538) | MIC S. aureus 6538 (S. aureus 6538) | MIC S. aureus 1882 (S. aureus 1882)
no significant differences: Relative organ indices and liver- and kidney function-related indices (Crea, urea, AST, ALT, TBIL, ALP) (BALB/c mice [2])
4 µM: MIC of SFK2 against S. aureus ATCC 6538, FeCl3 (S. aureus ATCC 6538) | MIC of SFK2 against S. aureus ATCC 6538, KCl (S. aureus ATCC 6538) | MIC of SFK2 against S. aureus ATCC 6538, MgCl2 (S. aureus ATCC 6538) | MIC of SFK2 against S. aureus ATCC 6538, NH4Cl (S. aureus ATCC 6538) | MIC of SFK2 against S. aureus ATCC 6538, NaCl (S. aureus ATCC 6538)
>128 μM: MHC (red blood cells)
>64 µM: MIC P. aeruginosa 15442 (P. aeruginosa 15442) | MIC P. aeruginosa 27853 (P. aeruginosa 27853) | MIC E. coli K88 (E. coli K88) | MIC E. coli K99 (E. coli K99) | MIC E. coli 25922 (E. coli 25922) | MIC S. epidermidis 12228 (S. epidermidis 12228)
